Reference: ChEMBL document CHEMBL1201862, “PubChem BioAssay data set” (2004)
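Following 48 hours of exposure in 96-well plates, responses at five concentrations were used to interpolate endpoints linearly. Abbreviation: GI50, concentration required for 50% inhibition of growth.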 Active and inactive are the calls of the source. Cut-off read from the data, not from the text of the source: active = GI50 up to about 1.1 µM and inactive = higher.

Tests used:
Assay in all cases: growth of human tumour cells (NCI), 48 h
786-0 = test system: 786-0
A498 = test system: A498
A549 = test system: A549
ACHN = test system: ACHN
BT-549 = test system: BT-549
CAKI-1 = test system: CAKI-1
CCRF-CEM = test system: CCRF-CEM
COLO 205 = test system: COLO 205
DU-145 = test system: DU-145
EKVX = test system: EKVX
HCC 2998 = test system: HCC 2998
HCT-116 = test system: HCT-116
HCT-15 = test system: HCT-15
HOP-62 = test system: HOP-62
HOP-92 = test system: HOP-92
IGROV-1 = test system: IGROV-1
K562 = test system: K562
KM12 = test system: KM12
LOX IMVI = test system: LOX IMVI
M14 = test system: M14
MCF7 = test system: MCF7
MDA-MB-435 = test system: MDA-MB-435
MDA-N = test system: MDA-N
MOLT-4 = test system: MOLT-4
NCI-H226 = test system: NCI-H226
NCI-H23 = test system: NCI-H23
NCI-H460 = test system: NCI-H460
NCI/ADR-RES = test system: NCI/ADR-RES
OVCAR-3 = test system: OVCAR-3
OVCAR-5 = test system: OVCAR-5
OVCAR-8 = test system: OVCAR-8
PC-3 = test system: PC-3
RPMI-8226 = test system: RPMI-8226
SF-295 = test system: SF-295
SF-539 = test system: SF-539
SK-MEL-28 = test system: SK-MEL-28
SK-MEL-2 = test system: SK-MEL-2
SK-MEL-5 = test system: SK-MEL-5
SK-OV-3 = test system: SK-OV-3
SN12C = test system: SN12C
SNB-19 = test system: SNB-19
SNB-75 = test system: SNB-75
SR = test system: SR
SW-620 = test system: SW-620
T47D = test system: T47D
U-251 = test system: U-251
UACC-257 = test system: UACC-257
UACC-62 = test system: UACC-62
UO-31 = test system: UO-31

For `CN1CCN(/C(N)=C(\C#N)C(=O)Nc2ccccc2)CC1`, the GI50 (786-0) was > 100 µM (inactive), the GI50 (A498) was > 100 µM (inactive) and the GI50 (A549) was > 100 µM (inactive). For the same compound, the GI50 (ACHN) was > 100 µM (inactive), the GI50 (BT-549) was > 100 µM (inactive) and the GI50 (CAKI-1) was > 100 µM (inactive). For the same compound, the GI50 (CCRF-CEM) was > 100 µM (inactive), the GI50 (COLO 205) was > 100 µM (inactive) and the GI50 (DU-145) was > 100 µM (inactive). The GI50 (EKVX) was > 100 µM (inactive), the GI50 (HCC 2998) was > 100 µM (inactive) and the GI50 (HCT-116) was > 100 µM (inactive). For the same compound, the GI50 (HCT-15) was > 100 µM, the GI50 (HOP-62) was > 100 µM (inactive) and the GI50 (HOP-92) was > 100 µM (inactive). The GI50 (IGROV-1) was > 100 µM (inactive), the GI50 (K562) was > 100 µM (inactive) and the GI50 (KM12) was > 100 µM (inactive). For the same compound, the GI50 (LOX IMVI) was > 100 µM (inactive), the GI50 (M14) was > 100 µM (inactive) and the GI50 (MCF7) was > 100 µM (inactive). The GI50 (MDA-MB-435) was > 100 µM (inactive), the GI50 (MDA-N) was > 100 µM (inactive) and the GI50 (MOLT-4) was > 100 µM (inactive). For the same compound, the GI50 (NCI-H226) was > 100 µM (inactive), the GI50 (NCI-H23) was > 100 µM (inactive) and the GI50 (NCI-H460) was > 100 µM (inactive). The GI50 (NCI/ADR-RES) was > 100 µM (inactive), the GI50 (OVCAR-3) was > 100 µM (inactive) and the GI50 (OVCAR-5) was > 100 µM (inactive). The GI50 (OVCAR-8) was > 100 µM (inactive), the GI50 (PC-3) was > 100 µM (inactive) and the GI50 (RPMI-8226) was > 100 µM (inactive). For the same compound, the GI50 (SF-295) was > 100 µM (inactive), the GI50 (SF-539) was > 100 µM (inactive) and the GI50 (SK-MEL-28) was > 100 µM (inactive). The GI50 (SK-MEL-2) was > 100 µM (inactive), the GI50 (SK-MEL-5) was > 100 µM (inactive) and the GI50 (SK-OV-3) was > 100 µM (inactive). The GI50 (SN12C) was > 100 µM (inactive), the GI50 (SNB-19) was > 100 µM (inactive) and the GI50 (SNB-75) was > 100 µM (inactive). The GI50 (SR) was > 100 µM (inactive), the GI50 (SW-620) was > 100 µM (inactive) and the GI50 (T47D) was > 100 µM (inactive). For the same compound, the GI50 (U-251) was > 100 µM (inactive), the GI50 (UACC-257) was > 100 µM (inactive) and the GI50 (UACC-62) was > 100 µM (inactive). For the same compound, the GI50 (UO-31) was > 100 µM (inactive).
